Consider 5 molecules from patent US9522167B2, “Alphanizomenon flos aquae preparation, extracts and purified components thereof for the treatment of neurological, neurodegenerative and mood disorders” (Nutratec, s.r.l., priority 2006, dated 2016).

pIC50, pKi: −log10 of the molar value.

For one assay, the system named is MAO-B. The note with it: literature values (ref. 45), cited from earlier work; for pIC50: read-out: IC50 of MAO-B inhibition; for pKi: read-out: Ki of MAO-B inhibition.
For another assay, the system named is neurons. Briefly: Neuroprotection against glutamate-induced apoptosis of cultured neurons (DAPI staining). In kind it is cell-based. The note with it: glutamate 100 μM plus 10 μM glycine, 30 min pre-incubation, apoptosis after 24 h. The protocol: The exposure of neurons to glutamate was carried according to a slightly modified method (50): culture medium was removed and neurons were washed once with prewarmed 37° C. buffered Hanks' solution (5.26 mM KCl, 0.43 mM KH2H2PO4, 132.4 mM NaCl, 4.09 mM NaHCO3, 0.33 mM Na2HPO4, 20 mM glucose, 2 mM CaCl2, and 20 mM HEPES, pH 7.4) and pre-incubated in the absence or presence of several concentrations of AFA extract (1-50 nM), PC (10-1000 nM), PCB (10-1000 nM) and MAA (1-10 μM) in prewarmed 37° C. buffered Hanks' solution. After 30 min of pre-incubation, L-glutamate was added from concentrated solutions to the final concentration indicated 100 μM plus 10 μM glycine. […]
Apoptosis was assessed by staining the nuclei of cells with DAPI (50), a membrane-permeable fluorescent dye that binds DNA and allows quantification of apoptotic neurons, i.e., neurons displaying fragmented or condensed nuclei. […] Cells were scored for chromatin condensation by fluorescence microscopy, using a fluorescein filter (330-380 excitation; 30× magnification). Total and apoptotic nuclei were counted. In all cases, approximately 600-1,000 cells were counted per well by an operator blind to the protocol design. Measurements from individual cultures were performed in duplicate and results are expressed as the mean S.E.M. values for the number of culture preparations indicated. […]

For `Oc1cc(O)c2c(c1)OC(c1ccc(O)c(O)c1)C(O)C2` (stereo not drawn) [Catechine], in the assay on MAO-B, the Inhibition type entry is “Mixed” and the pIC50 was 4.05.
As to `Cc1cc(O)c2c(c1)C(=O)c1cc(O)cc(O)c1C2=O` [Emodin], in the assay with MAO-B, the Inhibition type entry was “Mixed”, the negative-log IC50 (pIC50) is 4.45 and the negative-log Ki (pKi) was 4.82.
On to `COc1ccc(C(C)=O)c(O)c1` [Paeonol], for which, in the assay with MAO-B, the Inhibition type result is recorded as “Competitive”, the pIC50 was 4.37 and the pKi was 4.42.
Epicatechine: in the assay on MAO-B, the Inhibition type result is “Mixed”, the pIC50 is 4.23 and the pKi is 4.68.
For the molecule phycocyanobilin [PCB], in the assay with neurons, the “amount lowering apoptosis below the control level” value was “approximately 10 nM”.

Usually pIC50 stands for the negative decadic logarithm of the IC50, by convention in mol/L. One may read the pKi as the Ki on a negative log10 scale, so that one unit is a factor of ten.
